In ChEMBL document CHEMBL1201862, “PubChem BioAssay data set” (2004):
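Step 1: Grow cells in 96-well plates. Step 2: Expose to compound for 48 hours at 5 concentrations. Step 3: Interpolate endpoints linearly; if unreached, use highest concentration. Here, GI50 denotes the concentration required for 50% inhibition of growth.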 Activity calls are given as the source filed them. Cut-off read from the data, not from the text of the source: active = GI50 up to about 1.1 µM and inactive = higher.

Key:
Assay in all cases: NCI anticancer screen, dose series, 48 h
HL-60 = tested on: HL-60
UACC-257 = tested on: UACC-257
SK-MEL-28 = tested on: SK-MEL-28
KM-20L2 = tested on: KM-20L2
A498 = tested on: A498
SF-539 = tested on: SF-539
UO-31 = tested on: UO-31
SN12C = tested on: SN12C
SW-620 = tested on: SW-620
U-251 = tested on: U-251
COLO 205 = tested on: COLO 205
LOX IMVI = tested on: LOX IMVI
HOP-92 = tested on: HOP-92
OVCAR-8 = tested on: OVCAR-8
ACHN = tested on: ACHN
KM12 = tested on: KM12
NCI-H226 = tested on: NCI-H226
SNB-19 = tested on: SNB-19
A549 = tested on: A549
SF-268 = tested on: SF-268
OVCAR-3 = tested on: OVCAR-3
SK-MEL-2 = tested on: SK-MEL-2
NCI-H460 = tested on: NCI-H460
HOP-18 = tested on: HOP-18
HOP-62 = tested on: HOP-62
UACC-62 = tested on: UACC-62
MOLT-4 = tested on: MOLT-4
SK-MEL-5 = tested on: SK-MEL-5
SK-OV-3 = tested on: SK-OV-3
HCC 2998 = tested on: HCC 2998
OVCAR-5 = tested on: OVCAR-5
DMS-114 = tested on: DMS-114
NCI-H23 = tested on: NCI-H23
TK-10 = tested on: TK-10
HCT-15 = tested on: HCT-15
NCI-H522 = tested on: NCI-H522
HT-29 = tested on: HT-29
DLD-1 = tested on: DLD-1
CCRF-CEM = tested on: CCRF-CEM
M14 = tested on: M14
EKVX = tested on: EKVX
Malme-3M = tested on: Malme-3M
RPMI-8226 = tested on: RPMI-8226
786-0 = tested on: 786-0
M19-MEL = tested on: M19-MEL
HCT-116 = tested on: HCT-116
K562 = tested on: K562
LXFL 529 = tested on: LXFL 529
XF498 = tested on: XF498
SF-295 = tested on: SF-295
SNB-75 = tested on: SNB-75
IGROV-1 = tested on: IGROV-1
RXF 393 = tested on: RXF 393
SNB-78 = tested on: SNB-78
OVCAR-4 = tested on: OVCAR-4
CAKI-1 = tested on: CAKI-1
DMS-273 = tested on: DMS-273
SR = tested on: SR

O=C1C(c2ccc(Br)cc2)=[N+]([O-])c2ccccc21
GI50 (HL-60): 2.14 µM (inactive)
GI50 (UACC-257): 11.3 µM (inactive)
GI50 (SK-MEL-28): 20.2 µM (inactive)
GI50 (KM-20L2): 20.7 µM (inactive)
GI50 (A498): 22.1 µM (inactive)
GI50 (SF-539): 20.5 µM (inactive)
GI50 (UO-31): 14.3 µM (inactive)
GI50 (SN12C): 15.5 µM (inactive)
GI50 (SW-620): 26.1 µM (inactive)
GI50 (U-251): 14.7 µM (inactive)
GI50 (COLO 205): 16.3 µM (inactive)
GI50 (LOX IMVI): 8.75 µM (inactive)
GI50 (HOP-92): 7.21 µM (inactive)
GI50 (OVCAR-8): 10.2 µM (inactive)
GI50 (ACHN): 13.4 µM (inactive)
GI50 (KM12): 14.8 µM (inactive)
GI50 (NCI-H226): 13.1 µM (inactive)
GI50 (SNB-19): 21 µM (inactive)
GI50 (A549): 20.9 µM (inactive)
GI50 (SF-268): 17.6 µM (inactive)
GI50 (OVCAR-3): 14.9 µM (inactive)
GI50 (SK-MEL-2): 11.7 µM (inactive)
GI50 (NCI-H460): 16.9 µM (inactive)
GI50 (HOP-18): 11.9 µM (inactive)
GI50 (HOP-62): 27 µM (inactive)
GI50 (UACC-62): 16 µM (inactive)
GI50 (MOLT-4): 4.79 µM (inactive)
GI50 (SK-MEL-5): 9.55 µM (inactive)
GI50 (SK-OV-3): 55.1 µM (inactive)
GI50 (HCC 2998): 13.5 µM (inactive)
GI50 (OVCAR-5): 20.8 µM (inactive)
GI50 (DMS-114): 3.94 µM (inactive)
GI50 (NCI-H23): 15.8 µM (inactive)
GI50 (TK-10): 15.9 µM (inactive)
GI50 (HCT-15): 5.97 µM
GI50 (NCI-H522): 2.45 µM (inactive)
GI50 (HT-29): 21.6 µM (inactive)
GI50 (DLD-1): 8.51 µM (inactive)
GI50 (CCRF-CEM): 4.12 µM (inactive)
GI50 (M14): 16.3 µM (inactive)
GI50 (EKVX): 16 µM (inactive)
GI50 (Malme-3M): 18.4 µM (inactive)
GI50 (RPMI-8226): 3.88 µM (inactive)
GI50 (786-0): 17.1 µM (inactive)
GI50 (M19-MEL): 9.62 µM (inactive)
GI50 (HCT-116): 14.4 µM (inactive)
GI50 (K562): 10.2 µM (inactive)
GI50 (LXFL 529): 5.16 µM (inactive)
GI50 (XF498): 17.5 µM (inactive)
GI50 (SF-295): > 10 µM (inactive)
GI50 (SNB-75): 16.6 µM (inactive)
GI50 (IGROV-1): 17.4 µM (inactive)
GI50 (RXF 393): 16.9 µM (inactive)

CC(=O)/C=C1/c2ccccc2N(C(C)=O)C1O (configuration not stated)
GI50 (HL-60): > 100 µM (inactive)
GI50 (UACC-257): > 100 µM (inactive)
GI50 (SK-MEL-28): > 100 µM (inactive)
GI50 (KM-20L2): > 100 µM (inactive)
GI50 (A498): > 100 µM (inactive)
GI50 (SF-539): > 100 µM (inactive)
GI50 (UO-31): > 100 µM (inactive)
GI50 (SN12C): > 100 µM (inactive)
GI50 (SW-620): > 100 µM (inactive)
GI50 (U-251): > 100 µM (inactive)
GI50 (COLO 205): > 100 µM (inactive)
GI50 (HOP-92): > 100 µM (inactive)
GI50 (OVCAR-8): > 100 µM (inactive)
GI50 (ACHN): > 100 µM (inactive)
GI50 (SNB-78): > 100 µM (inactive)
GI50 (KM12): > 100 µM (inactive)
GI50 (SNB-19): > 100 µM (inactive)
GI50 (A549): > 100 µM (inactive)
GI50 (OVCAR-3): > 100 µM (inactive)
GI50 (SK-MEL-2): > 100 µM (inactive)
GI50 (NCI-H460): > 100 µM (inactive)
GI50 (HOP-18): > 100 µM (inactive)
GI50 (HOP-62): > 100 µM (inactive)
GI50 (UACC-62): > 100 µM (inactive)
GI50 (MOLT-4): > 100 µM (inactive)
GI50 (OVCAR-4): > 100 µM (inactive)
GI50 (SK-OV-3): > 100 µM (inactive)
GI50 (HCC 2998): > 100 µM (inactive)
GI50 (CAKI-1): > 100 µM (inactive)
GI50 (DMS-114): > 100 µM (inactive)
GI50 (NCI-H23): > 100 µM (inactive)
GI50 (HCT-15): > 100 µM
GI50 (HT-29): > 100 µM (inactive)
GI50 (DLD-1): > 100 µM (inactive)
GI50 (CCRF-CEM): > 100 µM (inactive)
GI50 (M14): > 100 µM (inactive)
GI50 (DMS-273): > 100 µM (inactive)
GI50 (EKVX): > 100 µM (inactive)
GI50 (RPMI-8226): > 100 µM (inactive)
GI50 (786-0): > 100 µM (inactive)
GI50 (M19-MEL): > 100 µM (inactive)
GI50 (HCT-116): > 100 µM (inactive)
GI50 (K562): > 100 µM (inactive)
GI50 (LXFL 529): > 100 µM (inactive)
GI50 (SF-295): > 100 µM (inactive)
GI50 (SNB-75): > 100 µM (inactive)
GI50 (IGROV-1): > 100 µM (inactive)
GI50 (RXF 393): > 100 µM (inactive)
GI50 (SR): > 100 µM (inactive)
